What follows are compounds tested against T1, GST-Plk1 (Homo sapiens, UniProt P53350) (assay: Biochemical Characterization Assay: HTRF kinase assay, GST-Plk1 phosphorylation of GST-p53). Details: full-length active GST-Plk1, GST-p53 substrate, ATP, 37° C. for 35 minutes, HTRF signal.
T1 construct: Full-length, active GST-Plk1 was purified from Sf9 insect cells; made in house; host or cells: Sf9 insect cells
T1 sequence (P53350 whole entry): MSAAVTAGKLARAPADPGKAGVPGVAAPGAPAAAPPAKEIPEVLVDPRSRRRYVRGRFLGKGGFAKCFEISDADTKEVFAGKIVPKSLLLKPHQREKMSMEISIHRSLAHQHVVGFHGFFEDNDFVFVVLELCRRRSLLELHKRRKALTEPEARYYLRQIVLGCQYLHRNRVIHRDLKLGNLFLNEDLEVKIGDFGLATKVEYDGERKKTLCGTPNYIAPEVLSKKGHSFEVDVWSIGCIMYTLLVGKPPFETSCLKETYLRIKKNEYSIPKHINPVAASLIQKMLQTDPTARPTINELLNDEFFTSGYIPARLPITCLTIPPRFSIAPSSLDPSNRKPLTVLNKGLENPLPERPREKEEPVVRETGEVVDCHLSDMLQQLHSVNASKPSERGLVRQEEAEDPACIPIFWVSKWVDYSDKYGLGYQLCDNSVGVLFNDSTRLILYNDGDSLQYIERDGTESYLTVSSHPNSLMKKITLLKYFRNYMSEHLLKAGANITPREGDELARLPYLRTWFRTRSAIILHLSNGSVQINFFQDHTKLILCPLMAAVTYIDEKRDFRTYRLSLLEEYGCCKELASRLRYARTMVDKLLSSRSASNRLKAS
Experimental: Full-length, active GST-Plk1 was purified from Sf9 insect cells, and full-length GST-p53 was purified in E. coli. Anti-phospho p53 antibody was purchased from Cell Signaling Technology. Europium-conjugated anti-rabbit antibody was purchased from PerkinElmer Life and Analytical Sciences. APC-conjugated anti-GST antibody was purchased from Prozyme.
To two microliters of compound (0.6 nM-4 mM) in DMSO or plain DMSO for control wells, 38 microliters of 20 mM HEPES pH 7, 50 mM NaCl, 10 mM MgCl2, 0.5 mM TCEP, 0.1 mM sodium orthovanadate, 0.1 mg/ml BSA, and 0.05% Triton X-100 (Kinase Assay Buffer) were added. Eight microliters of the compound solution were added to a 384-well black microtiter plate, followed by six microliters of GST-p53 (17 ug/ml) and ATP (333 uM) in Kinase Assay Buffer. Six microliters of GST-Plk1 (3 ug/ml) in Kinase Assay Buffer were then added and the solution incubated at 37° C. for 35 minutes. Six microliters of solution containing 43 mM EDTA to stop the reaction and a 1:600 dilution of anti-phospho-p53 antibody in 20 mM HEPES pH 7, 50 mM NaCl, and 0.5 mg/ml BSA (Antibody Binding Buffer) were added and the solution incubated at 37° C. for 30 minutes. Six microliters of solution containing 9 nM europium-conjugated anti-rabbit antibody and 120 nM APC-conjugated anti-GST antibody in Antibody Binding Buffer were then added and the mixture incubated at room temperature for 1.5 hours. The HTRF signal was read on the Envision reader (PerkinElmer Life and Analytical Sciences).
“1-(5-Carboxy-4-phenyl-thiazol-2-yl)-1H-benzoimidazole-4-carboxylic acid and 3-(5-carboxy-4-phenyl-thiazol-2-yl)-3H-benzoimidazole-4-carboxylic acid [Example 8]” showed an IC50 of 6420 nM. “2-(4-Hydroxy-benzoimidazol-1-yl)-4-phenyl-thiazole-5-carboxylic acid and 2-(7-hydroxy-benzoimidazol-1-yl)-4-phenyl-thiazole-5-carboxylic acid [Example 7]” was tested, and the IC50 was 7470 nM. Compound “2-(5-Chloro-6-fluoro-benzoimidazol-1-yl)-4-phenyl-thiazole-5-carboxylic acid and 2-(6-chloro-5-fluoro-benzoimidazol-1-yl)-4-phenyl-thiazole-5-carboxylic acid [Example 35]” has an IC50 of 1290 nM. With “2-(5-Chloro-6-methylbenzoimidazol-1-yl)-4-phenylthiazole-5-carboxylic acid and 2-(6-chloro-5-methylbenzoimidazol-1-yl)-4-phenylthiazole-5-carboxylic acid [Example 16]” the IC50 was 1170 nM. “2-(5-Chlorobenzoimidazol-1-yl)-4-phenylthiazole-5-carboxylic acid and 2-(6-chlorobenzoimidazol-1-yl)-4-phenylthiazole-5-carboxylic acid [Example 14]” gave an IC50 of 720 nM. For “2-(5-Hydroxy-benzoimidazol-1-yl)-4-phe-nyl-thiazole-5-car-boxylic acid; compoundwith 2-(6-hydroxy-benzoimidazol-1-yl)-4-phenyl-thiazole-5-carboxylic acid [Example 65]”, the IC50 was 388 nM. Compound “2-(5-Methoxy-6-methylbenzoimidazol-1-yl)-4-phenylthiazole-5-carboxylic acid and 2-(6-methoxy-5-methylbenzoimidazol-1-yl)-4-phenylthiazole-5-carboxylic acid [Example 59]” has an IC50 of 826 nM. In the case of “2-(5-Methoxy-benzoimidazol-1-yl)-4-phe-nyl-thiazole-5-car-boxylic acid; compoundwith 2-(6-methoxy-benzoimidazol-1-yl)-4-phenyl-thiazole-5-carboxylic acid [Example 15]”, the IC50 is reported as 226 nM. “2-(5-Methylbenzoimidazol-1-yl)-4-phenylthiazole-5-carboxylic acid and 2-(6-Methylbenzoimidazol-1-yl)-4-phenylthiazole-5-carboxylic acid [Example 4]” showed an IC50 of 1550 nM. “2-(8H-5,7-Dioxa-1,3-diaza-cyclopenta[b]naphthalen-3-yl)-4-phenyl-thiazole-5-carboxylic acid and 2-(8H-5,7-Dioxa-1,3-diaza-cyclopenta[b]naphthalen-1-yl)-4-phenyl-thiazole-5-carboxylic acid [Example 9]” was tested, and the IC50 was 2620 nM. “2-[5-(2-Methoxy-ethoxy)-benzo-imidazol-1-yl]-4-phenyl-thiazole-5-carboxylic acid;compound with 2-[6-(2-meth-oxy-ethoxy)-benzo-imidazol-1-yl]-4-phenyl-thiazole-5-carboxylic acid [Example 63]” was tested, and the IC50 was 526 nM. `COc1cc2ncn(-c3nc(-c4ccccc4)c(C(=O)O)s3)c2cc1OC` [Example 1, 2-(5,6-Dimethoxybenzoimidazol-1-yl)-4-phenylthiazole-5-carboxylic acid] gave an IC50 of 107 nM. Work on `O=C(O)c1sc(-n2cnc3ccccc32)nc1-c1ccccc1` [Example 2, 2-(Benzoimidazol-1-yl)-4-phenylthiazole-5-carboxylic acid] yielded an IC50 of 772 nM. Work on `NC(=O)c1sc(-n2cnc3ccccc32)nc1-c1ccccc1` [Example 3, 2-Benzoimidazol-1-yl-4-phenyl-thiazole-5-carboxylic acid amide] yielded an IC50 of 7360 nM. For `Cc1cc2ncn(-c3nc(-c4ccccc4)c(C(=O)O)s3)c2cc1C` [Example 5, 2-(5,6-Dimethylbenzoimidazol-1-yl)-4-phenylthiazole-5-carboxylic acid], the IC50 was 2490 nM. `COc1cc2ncn(-c3nc(-c4ccccc4)c(C(N)=O)s3)c2cc1OC` [Example 6, 2-(5,6-Dimethoxy-benzoimidazol-1-yl)-4-phenyl-thiazole-5-carboxylic acid amide] was tested, and the IC50 was 1380 nM. With `COc1cc2ncn(-c3nc(-c4ccccc4)c(C(=O)N(C)C)s3)c2cc1OC` [Example 10, 2-(5,6-Dimethoxy-benzoimidazol-1-yl)-4-phenyl-thiazole-5-carboxylic acid dimethylamide] the IC50 was 1380 nM. `CCNC(=O)c1sc(-n2cnc3cc(OC)c(OC)cc32)nc1-c1ccccc1` [Example 11, 2-(5,6-Dimethoxy-benzoimidazol-1-yl)-4-phenyl-thiazole-5-carboxylic acid ethylamide] showed an IC50 of 916 nM. For `COc1cc2ncn(-c3nc(-c4ccccc4)c(-c4nnn[nH]4)s3)c2cc1OC` [Example 12, 5,6-Dimethoxy-1-[4-phenyl-5-(1H-tetrazol-5-yl)-thiazol-2-yl]-1H-benzoimidazole], the IC50 was 1100 nM. Compound `COc1cc2ncn(-c3nc(-c4ccccc4)c(C(=O)NC4CC4)s3)c2cc1OC` [Example 13, 2-(5,6-Dimethoxy-benzoimidazol-1-yl)-4-phenyl-thiazole-5-carboxylic acid cyclopropylamide] has an IC50 of 3310 nM. For `COc1cc2ncn(-c3nc(-c4cccc(F)c4)c(C(=O)O)s3)c2cc1OC` [Example 17, 2-(5,6-Dimethoxy-benzoimidazol-1-yl)-4-(3-fluoro-phenyl)-thiazole-5-carboxylic acid], the IC50 was 69 nM. Compound `COc1ccc(-c2nc(-n3cnc4cc(OC)c(OC)cc43)sc2C(=O)O)cc1OC` [Example 18, 2-(5,6-Dimethoxy-benzoimidazol-1-yl)-4-(3,4-dimethoxy-phenyl)-thiazole-5-carboxylic acid] has an IC50 of 2390 nM. In the case of `COc1cc2ncn(-c3nc(-c4ccc(F)c(Cl)c4)c(C(=O)O)s3)c2cc1OC` [Example 19, 4-(3-Chloro-4-fluoro-phenyl)-2-(5,6-dimethoxy-benzoimidazol-1-yl)-thiazole-5-carboxylic acid], the IC50 is reported as 87 nM. `COc1cccc(-c2nc(-n3cnc4cc(OC)c(OC)cc43)sc2C(=O)O)c1` [Example 20, 2-(5,6-Dimethoxy-benzoimidazol-1-yl)-4-(3-methoxy-phenyl)-thiazole-5-carboxylic acid] gave an IC50 of 127 nM. `COc1cc2ncn(-c3nc(-c4ccccc4Cl)c(C(=O)O)s3)c2cc1OC` [Example 21, 4-(2-Chloro-phenyl)-2-(5,6-dimethoxy-benzoimidazol-1-yl)-thiazole-5-carboxylic acid] was tested, and the IC50 was 3600 nM. With `COc1cc2ncn(-c3nc(-c4ccc5c(c4)OCO5)c(C(=O)O)s3)c2cc1OC` [Example 22, 4-Benzo[1,3]dioxol-5-yl-2-(5,6-dimethoxy-benzoimidazol-1-yl)-thiazole-5-carboxylic acid] the IC50 was 125 nM. `COc1cc2ncn(-c3nc(-c4ccc(Cl)c(Cl)c4)c(C(=O)O)s3)c2cc1OC` [Example 23, 4-(3,4-Dichloro-phenyl)-2-(5,6-dimethoxy-benzoimidazol-1-yl)-thiazole-5-carboxylic acid] gave an IC50 of 216 nM. `COc1cc2ncn(-c3nc(-c4cccc(C(C)C)c4)c(C(=O)O)s3)c2cc1OC` [Example 24, 2-(5,6-Dimethoxy-benzoimidazol-1-yl)-4-(3-isopropyl-phenyl)-thiazole-5-carboxylic acid] gave an IC50 of 68 nM. `COc1cc2ncn(-c3nc(-c4ccsc4)c(C(=O)O)s3)c2cc1OC` [Example 25, 2-(5,6-Dimethoxy-benzoimidazol-1-yl)-4-thiophen-3-yl-thiazole-5-carboxylic acid] showed an IC50 of 781 nM. Compound `COc1cc2ncn(-c3nc(-c4ccc(C)cc4)c(C(=O)O)s3)c2cc1OC` [Example 26, 2-(5,6-Dimethoxy-benzoimidazol-1-yl)-4-p-tolyl-thiazole-5-carboxylic acid] has an IC50 of 657 nM. In the case of `COc1cc2ncn(-c3nc(-c4ccccc4C)c(C(=O)O)s3)c2cc1OC` [Example 27, 2-(5,6-Dimethoxy-benzoimidazol-1-yl)-4-o-tolyl-thiazole-5-carboxylic acid], the IC50 is reported as 1620 nM. `COc1ccc(-c2nc(-n3cnc4cc(OC)c(OC)cc43)sc2C(=O)O)cc1` [Example 28, 2-(5,6-Dimethoxy-benzoimidazol-1-yl)-4-(4-methoxy-phenyl)-thiazole-5-carboxylic acid] gave an IC50 of 856 nM. Compound `COc1cc2ncn(-c3nc(-c4cccc(F)c4F)c(C(=O)O)s3)c2cc1OC` [Example 29, 4-(2,3-Difluoro-phenyl)-2-(5,6-dimethoxy-benzoimidazol-1-yl)-thiazole-5-carboxylic acid] has an IC50 of 538 nM. `COc1cc2ncn(-c3nc(-c4ccccc4O)c(C(=O)O)s3)c2cc1OC` [Example 30, 2-(5,6-Dimethoxy-benzoimidazol-1-yl)-4-(2-hydroxy-phenyl)-thiazole-5-carboxylic acid] gave an IC50 of 275 nM. With `COc1cc2ncn(-c3nc(-c4cccc(Cl)c4)c(C(=O)O)s3)c2cc1OC` [Example 31, 4-(3-Chloro-phenyl)-2-(5,6-dimethoxy-benzoimidazol-1-yl)-thiazole-5-carboxylic acid] the IC50 was 25 nM. In the case of `COc1cc2ncn(-c3nc(-c4cccc5ccccc45)c(C(=O)O)s3)c2cc1OC` [Example 32, 2-(5,6-Dimethoxy-benzoimidazol-1-yl)-4-naphthalen-1-yl-thiazole-5-carboxylic acid], the IC50 is reported as 3180 nM.
